# Data from patent US20260317320A1, “C5AR1 ANTAGONISTS AND USES THEREOF” (Vanqua Bio, Inc., priority 2022, published 2026).
# Molecular target: T1, complement C5a receptor 1 (C5aR1) (Homo sapiens, UniProt P21730)
# T1 construct: β-galactosidase fragment (PathHunter enzyme complementation); host or cells: CHO-K1 (PathHunter CHO-K1 C5aR1 β-arrestin cell line)
# T1 sequence (P21730 1-350): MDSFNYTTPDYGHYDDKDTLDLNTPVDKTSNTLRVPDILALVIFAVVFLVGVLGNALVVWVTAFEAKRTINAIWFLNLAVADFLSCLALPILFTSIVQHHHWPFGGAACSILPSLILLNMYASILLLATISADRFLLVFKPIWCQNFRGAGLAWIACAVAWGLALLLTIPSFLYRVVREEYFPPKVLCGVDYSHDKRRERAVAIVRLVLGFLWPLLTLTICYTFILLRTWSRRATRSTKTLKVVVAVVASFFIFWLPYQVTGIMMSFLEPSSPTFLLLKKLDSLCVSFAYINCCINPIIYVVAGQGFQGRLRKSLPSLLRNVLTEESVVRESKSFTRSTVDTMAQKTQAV
# Test: β-arrestin recruitment via C5aR1 activation in live CHO-K1 cells (PathHunter), antagonist mode
# Assay type: cell-based
# Conditions: not given
# Experimental: Exemplary compounds were evaluated for classical GPCR β-arrestin recruitment via complement C5a receptor 1 (C5aR1) activation in live CHO-K1 cells. This cell line expresses two fragments of the […] protein coupled to β-arrestin and C5aR1. Complementation of the two fragments allows for the assessment of both C5aR1 agonism and antagonism. Recombinant hC5a (EC90) was used as the competing natural agonist against disclosed compounds (more information on the expanded protocol and cell line can be found on the manufacturer's website: PathHunter® CHO-K1 C5aR1 β-arrestin cell line, DiscoverX, Catalog No. 93-0557C2). […] IC50 ranges: A: IC50≤500 nM; B: 500 nM<IC50≤5 uM; C: 5 uM<IC50≤100 uM; D: IC50>100 uM.
row,IC50 [nM],Structure (SMILES)
1,< 500,"Cc1cnc2cc(C3CCN(c4c(C)cccc4F)CC3)c(=O)n(Cc3cccnc3OC(F)(F)F)c2n1 [compound 100, 7-(1-(2-Fluoro-6-methylphenyl)piperidin-4-yl)-3-methyl-5-((2-(trifluoromethoxy)pyridin-3-yl)methyl)pyrido[2,3-b]pyrazin-6(5H)-one]"

# Same assay, conditions: antagonist mode; recombinant hC5a (EC90) as competing natural agonist; live CHO-K1 cells; read-out: [Antagonist] B-arrestin2 recruitment: Average IC50
row,Structure (SMILES),IC50 [nM]
1,"Cc1cnc2cc([C@H]3CC[C@H](c4c(C)cccc4F)CC3)c(=O)n(Cc3nccnc3C(F)(F)F)c2n1 [99b, 7-(trans-4-(2-Fluoro-6-methylphenyl)cyclohexyl)-3-methyl-5-((3-(trifluoromethyl)pyrazin-2-yl)methyl)pyrido[2,3-b]pyrazin-6(5H)-one]",< 500
2,"Cc1cnc2cc([C@H]3CC[C@H](c4c(C)cccc4F)CC3)c(=O)n(Cc3ncccc3C(F)(F)F)c2n1 [121a, 7-(trans-4-(2-Fluoro-6-methylphenyl)cyclohexyl)-3-methyl-5-((3-(trifluoromethyl)pyridin-2-yl)methyl)pyrido[2,3-b]pyrazin-6(5H)-one]",< 500
3,"Cc1cnc2cc(C3CCN(c4c(C)cccc4F)CC3)c(=O)n(Cc3ccccc3OC(F)F)c2n1 [compound 74, 5-(2-(Difluoromethoxy)benzyl)-7-(1-(2-fluoro-6-methylphenyl)piperidin-4-yl)-3-methylpyrido[2,3-b]pyrazin-6(5H)-one]",500 to 5000
4,"Cc1c(C2CCN(c3ccccc3C(F)(F)F)CC2)c(=O)n(Cc2nccnc2F)c2nccnc12 [compound 77, 5-((3-Fluoropyrazin-2-yl)methyl)-8-methyl-7-(1-(2-(trifluoromethyl)phenyl)piperidin-4-yl)pyrido[2,3-b]pyrazin-6(5H)-one]",500 to 5000
5,"COc1ccnc(F)c1N1CCC(c2cc3nccnc3n(Cc3ncccc3C(F)(F)F)c2=O)CC1 [compound 79, 7-(1-(2-Fluoro-4-methoxypyridin-3-yl)piperidin-4-yl)-5-((3-(trifluoromethyl)pyridin-2-yl)methyl)pyrido[2,3-b]pyrazin-6(5H)-one]",500 to 5000
6,"COc1ccnc(F)c1N1CCC(c2cc3ncc(C)nc3n(Cc3nccnc3C(F)(F)F)c2=O)CC1 [compound 80, 7-(1-(2-Fluoro-4-methoxypyridin-3-yl)piperidin-4-yl)-3-methyl-5-((3-(trifluoromethyl)pyrazin-2-yl)methyl)pyrido[2,3-b]pyrazin-6(5H)-one]",500 to 5000
7,"Cc1ncc2cc(C3CCN(c4c(C)cccc4F)CC3)c(=O)n(Cc3ncccc3C(F)(F)F)c2n1 [compound 81, 6-(1-(2-fluoro-6-methylphenyl)piperidin-4-yl)-2-methyl-8-((3-(trifluoromethyl)pyridin-2-yl)methyl)pyrido[2,3-d]pyrimidin-7(8H)-one]",< 500
8,"Cc1c(C2CCN(c3ccccc3C(F)(F)F)CC2)c(=O)n(Cc2ncccc2F)c2nccnc12 [compound 83, 5-((3-Fluoropyridin-2-yl)methyl)-8-methyl-7-(1-(2-(trifluoromethyl)phenyl)piperidin-4-yl)pyrido[2,3-b]pyrazin-6(5H)-one]",< 500
9,"COc1ccnc(F)c1N1CCC(c2cc3ncc(C)nc3n(Cc3ncccc3C(F)(F)F)c2=O)CC1 [compound 85, 7-(1-(2-Fluoro-4-methoxypyridin-3-yl)piperidin-4-yl)-3-methyl-5-((3-(trifluoromethyl)pyridin-2-yl)methyl)pyrido[2,3-b]pyrazin-6(5H)-one]",< 500
10,"Cc1cnc2cc(C3CCN(c4c(C)cccc4F)CC3)c(=O)n(Cc3ncccc3C(F)(F)F)c2c1 [compound 90, 3-(1-(2-Fluoro-6-methylphenyl)piperidin-4-yl)-7-methyl-1-((3-(trifluoromethyl)pyridin-2-yl)methyl)-1,5-naphthyridin-2(1H)-one]",5000 to 100000
11,"Cc1cccc(F)c1C1CCN(c2cc3nccnc3n(Cc3ncccc3C(F)(F)F)c2=O)CC1 [compound 91, 7-(4-(2-fluoro-6-methylphenyl)piperidin-1-yl)-5-((3-(trifluoromethyl)pyridin-2-yl)methyl) pyrido[2,3-b]pyrazin-6(5H)-one]",500 to 5000
12,"Cc1cnc2cc(N3CCN(c4c(C)cccc4F)CC3)c(=O)n(Cc3nccnc3C(F)(F)F)c2n1 [compound 92, 7-(4-(2-Fluoro-6-methylphenyl)piperazin-1-yl)-3-methyl-5-((3-(trifluoromethyl)pyrazin-2-yl)methyl)pyrido[2,3-b]pyrazin-6(5H)-one]",< 500
13,"COc1ncnc2cc(C3CCN(c4c(C)cccc4F)CC3)c(=O)n(Cc3nccnc3C(F)(F)F)c12 [compound 93, 7-(1-(2-Fluoro-6-methylphenyl)piperidin-4-yl)-4-methoxy-5-((3-(trifluoromethyl)pyrazin-2-yl)methyl)pyrido[3,2-d]pyrimidin-6(5H)-one]",> 100000
14,"Cc1ccc2cc(C3CCN(c4c(C)cccc4F)CC3)c(=O)n(Cc3ncccc3C(F)(F)F)c2n1 [compound 94, 3-(1-(2-Fluoro-6-methylphenyl)piperidin-4-yl)-7-methyl-1-((3-(trifluoromethyl)pyridin-2-yl)methyl)-1,8-naphthyridin-2(1H)-one]",< 500
15,"Cc1cnc2cc(N3CCC(c4c(C)cccc4F)CC3)c(=O)n(Cc3nccnc3C(F)(F)F)c2n1 [compound 95, 7-(4-(2-Fluoro-6-methylphenyl)piperidin-1-yl)-3-methyl-5-((3-(trifluoromethyl)pyrazin-2-yl)methyl)pyrido[2,3-b]pyrazin-6(5H)-one]",500 to 5000
16,"Cc1cccc(F)c1N1CCN(c2cc3nccnc3n(Cc3ncccc3C(F)(F)F)c2=O)CC1 [compound 96, 7-(4-(2-Fluoro-6-methylphenyl)piperazin-1-yl)-5-((3-(trifluoromethyl)pyridin-2-yl)methyl)pyrido[2,3-b]pyrazin-6(5H)-one]",< 500
17,"Cc1cccc(F)c1N1CCN(c2c(C)c3nccnc3n(Cc3nccnc3C(F)(F)F)c2=O)CC1 [compound 97, 7-(4-(2-Fluoro-6-methylphenyl)piperazin-1-yl)-8-methyl-5-((3-(trifluoromethyl)pyrazin-2-yl)methyl)pyrido[2,3-b]pyrazin-6(5H)-one]",500 to 5000
18,"Cc1cccc(F)c1N1CCC(c2cc3nccnc3n(Cc3ncccc3OC(F)F)c2=O)CC1 [compound 98, 5-((3-(Difluoromethoxy)pyridin-2-yl)methyl)-7-(1-(2-fluoro-6-methylphenyl)piperidin-4-yl)pyrido[2,3-b]pyrazin-6(5H)-one]",< 500

# Now from value to compound:
row,IC50 [nM],Structure (SMILES)
1,500 to 5000,"Cc1cnc2cc([C@H]3CC[C@@H](c4c(C)cccc4F)CC3)c(=O)n(Cc3nccnc3C(F)(F)F)c2n1 [99a, 7-(cis-4-(2-Fluoro-6-methylphenyl)cyclohexyl)-3-methyl-5-((3-(trifluoromethyl)pyrazin-2-yl)methyl)pyrido[2,3-b]pyrazin-6(5H)-one]"
2,500 to 5000,"Cc1cnc2cc([C@H]3CC[C@@H](c4c(C)cccc4F)CC3)c(=O)n(Cc3ncccc3C(F)(F)F)c2n1 [121b, 7-(cis-4-(2-Fluoro-6-methylphenyl)cyclohexyl)-3-methyl-5-((3-(trifluoromethyl)pyridin-2-yl)methyl)pyrido[2,3-b]pyrazin-6(5H)-one]"
3,< 500,"Cc1cccc(F)c1N1CCC(c2cc3nccnc3n(Cc3ccccc3C(F)(F)F)c2=O)CC1 [compound 1, 7-(1-(2-Fluoro-6-methylphenyl)piperidin-4-yl)-5-(2-(trifluoromethyl)benzyl)pyrido[2,3-b]pyrazin-6(5H)-one]"
4,500 to 5000,"Cc1cnc2c(C)c(C3CCN(c4c(C)cccc4F)CC3)c(=O)n(Cc3ncccc3C(F)(F)F)c2n1 [compound 75, 7-(1-(2-Fluoro-6-methylphenyl)piperidin-4-yl)-3,8-dimethyl-5-((3-(trifluoromethyl)pyridin-2-yl)methyl)pyrido[2,3-b]pyrazin-6(5H)-one]"
5,500 to 5000,"COc1cnc2cc(C3CCN(c4c(C)cccc4F)CC3)c(=O)n(Cc3nccnc3C(F)(F)F)c2n1 [compound 76, 7-(1-(2-Fluoro-6-methylphenyl)piperidin-4-yl)-3-methoxy-5-((3-(trifluoromethyl)pyrazin-2-yl)methyl)pyrido[2,3-b]pyrazin-6(5H)-one]"
6,500 to 5000,"Cc1cnc2cc(C3CCN(c4c(C)cccc4F)CC3)c(=O)n(Cc3ccccc3OC(F)(F)F)c2n1 [compound 78, 7-(1-(2-Fluoro-6-methylphenyl)piperidin-4-yl)-3-methyl-5-(2-(trifluoromethoxy)benzyl)pyrido[2,3-b]pyrazin-6(5H)-one]"
7,> 100000,"Cc1cccc(F)c1N1CCC(c2cc3ncncc3n(Cc3nccnc3C(F)(F)F)c2=O)CC1 [compound 82, 7-(1-(2-Fluoro-6-methylphenyl)piperidin-4-yl)-5-((3-(trifluoromethyl)pyrazin-2-yl)methyl)pyrido[3,2-d]pyrimidin-6(5H)-one]"
8,> 100000,"Cc1cccc(F)c1N1CCC(c2cc3ncncc3n(Cc3ncccc3C(F)(F)F)c2=O)CC1 [compound 84, 7-(1-(2-Fluoro-6-methylphenyl)piperidin-4-yl)-5-((3-(trifluoromethyl)pyridin-2-yl)methyl)pyrido[3,2-d]pyrimidin-6(5H)-one]"
